Activity calls are given as the source filed them. The calls are words filed in the database; no cut-off is given here.
What was measured:
[1] = Inhibition of tubulin assembly
[2] = Displacement of fluorescent N-AB-PT from tubulin by spectrofluorimetry
A2780 [3] = assay: Cytotoxicity against human A2780 cells after 4 days by sulforhodamine B assay; type: functional, cell-based; settings: A2780, 96 h
PC-3 [4] = assay: Cytotoxicity against human PC3 cells after 4 days by sulforhodamine B assay; type: functional, cell-based; settings: PC-3, 96 h
P388 = assay: Ratio of docetaxel to compound in cytotoxic activity against mouse P388 cells; type: functional
[5] = Ratio of paclitaxel Kd to compound Kd for displacement of fluorescent N-AB-PT from tubulin
[6] = Ratio of compound ED50 to paclitaxel ED50 for inhibition of tubulin assembly
A2780 [7] = assay: Ratio of compound IC50 to paclitaxel IC50 for cytotoxic activity against human A2780 cells; type: functional
PC-3 [8] = assay: Ratio of compound IC50 to paclitaxel IC50 for cytotoxic activity against human PC3 cells; type: functional
[9] = Effect on tubulin polymerization at 50 uM by cold-induced disassembly assay

| ED50 [1] [nM] | Ka [2] [M⁻¹] | Ratio [5] | Ratio ED50 [6] | Activity [9] | Structure (SMILES) | IC50 (A2780 [3]) [nM] | IC50 (PC-3 [4]) [nM] | Ratio (P388) | Ratio IC50 (A2780 [7]) | Ratio IC50 (PC-3 [8]) |
| --- | --- | --- | --- | --- | --- | --- | --- | --- | --- | --- |
| 430 | 1.11e+07 | – | – | – | COC(=O)N[C@@H](c1ccccc1)[C@@H](O)C(=O)O[C@H]1C[C@@]2(O)[C@@H](OC(=O)c3ccccc3)[C@@H]3[C@]4(OC(C)=O)CO[C@@H]4C[C@H](O)[C@@]3(C)C(=O)[C@H](OC(C)=O)C(=C1C)C2(C)C | 9 | 2 | 150 | – | – |
| 480 | 4.76e+07 | – | – | – | CC(=O)O[C@H]1C(=O)[C@@]2(C)[C@H]([C@H](OC(=O)c3ccccc3)[C@]3(O)C[C@H](OC(=O)[C@H](O)[C@@H](NC(=O)c4ccccc4)c4ccccc4)C(C)=C1C3(C)C)[C@]1(OC(C)=O)CO[C@@H]1C[C@@H]2O [PACLITAXEL] | – | 1.4 | – | – | – |
| > 25000 | – | 150 | 50 | inactive | CC(=O)O[C@H]1C(=O)[C@@]2(C)[C@H]([C@H](OC(=O)c3ccccc3)[C@]3(O)C[C@H](OC(=O)[C@H](O)[C@H]4NC(=O)Oc5ccccc54)C(C)=C1C3(C)C)[C@]1(OC(C)=O)CO[C@@H]1C[C@@H]2O | > 20000 | > 5000 | – | 1900 | 1900 |
| – | – | – | 5.1 | – | CC(=O)O[C@H]1C(=O)[C@@]2(C)[C@H]([C@H](OC(=O)c3ccccc3)[C@@]3(O)C[C@@H](OC(=O)[C@@H](O)[C@@H](NC(=O)c4ccccc4)c4ccccc4C)C(C)=C1C3(C)C)[C@@]1(OC(C)=O)CO[C@@H]1C[C@@H]2O (stereo in doubt) | – | – | – | – | – |

Source: ChEMBL document CHEMBL1153590 (Bioorg Med Chem Lett, 2009)
